The values below come from paper PMC6057649, “Development of NanoLuc-PEST expressing Leishmania mexicana as a new drug discovery tool for axenic- and intramacrophage-based assays” (PLoS Neglected Tropical Diseases, 2018).

In data set [1] the test system is NanoLuc-PEST expressing L. mexicana axenic amastigotes. Kind of data set: Fluorescence-based (AlamarBlue) viability assay, NanoLuc-PEST axenic amastigotes. Particulars: Leishmania mexicana, 72 h. A general note: Alamar Blue is a resazurin reagent that responds to reducing activity.
Data set [2] relates to L. mexicana NanoLuc-PEST intramacrophage amastigotes. As to the kind of experiment: Bioluminescence-based intramacrophage assay in THP-1 infection model. The settings on record: for EC50: read-out: EC50 against amastigotes, Intramacrophage; for EC90: read-out: EC90 against amastigotes, Intramacrophage. The format is cell-based.
In data set [3] the test system is L. mexicana axenic amastigotes. Details: method as in PMID 9087496. Particulars: L. mexicana axenic amastigotes ref 47; read-out: Previous EC50, axenic amastigotes; cited from earlier work.
Data set [4] concerns NanoLuc-PEST expressing L. mexicana axenic amastigotes. Kind of data set: microbe, parasite or virus in culture. The format is cell-based.
Data set [5] relates to NanoLuc-PEST-expressing L. mexicana promastigotes and axenic amastigotes. As to the kind of experiment: Cycloheximide and proteasome (MG-132) assays on luciferase signal. The format is cell-based. Particulars: 5 μM, 6 hours. As to the method:
Detection of NanoLuc and NanoLuc-PEST enzymes was performed using the lytic Nano-Glo Assay (Promega), according to the manufacturer’s instructions. Detection of PRE9 was performed using either the Firefly Luciferase Glow Assay (Pierce), or the Bright-Glow Assay (Promega). Bioluminescence was measured using the Promega GloMax Multi Detection System. All data was normalised by subtracting bioluminescence values for the untransformed, parental line, and all assays done in triplicate.
Cycloheximide assays were performed over 8 hours. Cells were seeded to a cell density of 5 x10^5 cells/well (100 μL/well). Cycloheximide (Sigma) was added to each well to a final concentration of 100 μM and incubated with cells for a range of time points between 0 and 8 hours. Bioluminescence was measured as described above, and the half-life of each luciferase was calculated by one phase decay non-linear regression (GraphPad Prism 6.0). Proteosome assays were performed using the method above with the addition of 5 μM MG-132 (Sigma) for 6 hours. Statistical significance was determined using a paired, two-tailed T-test (GraphPad Prism 6.0).

The subject of data set [6] is HepG2. Particulars: ref MMV Pathogen Box website, cited from earlier work; for CC50: read-out: HepG2 CC50.
Data set [7] has as its system THP-1 cell line. As to the kind of experiment: Macrophage toxicity assay (PrestoBlue). Particulars: read-out: THP1 EC50, PMA-differentiated THP-1 macrophages, 72 hours.
For data set [8], the system named is L. donovani axenic amastigotes. Particulars: cited from earlier work.
The test system of data set [9] is L. donovani intramacrophage amastigotes. Particulars: cited from earlier work.
Data set [10] has as its system MRC5. Set-up: method as in MMV Pathogen Box website. The settings on record: ref MMV Pathogen Box website; cited from earlier work.
Data set [11] deals with THP-1 cell line.
In data set [12] the test system is L. mexicana intramacrophage amastigotes. Details: method as in PMID 14695832. Particulars: values in brackets ref 52, read-out: Previous EC50, intramacrophage amastigotes; cited from earlier work.
The subject of data set [13] is Leishmania spp. intramacrophage amastigotes. The settings on record: value in brackets ref 55, read-out: Previous EC50, intramacrophage amastigotes; cited from earlier work.
Data set [14] deals with wild-type L. mexicana axenic amastigotes. Kind of data set: Fluorescence-based (AlamarBlue) viability assay, parental axenic amastigotes. Particulars: Leishmania mexicana, 72 h.
Where [15] appears, read: Leishmania mexicana, 72 h; read-out: EC50.
Where [16] appears, read: Leishmania mexicana; 2 µM compound, 72 hours, relative to DMSO only control, n = 4; read-out: Relative Bioluminescence (%).
Where [17] appears, read: Leishmania mexicana; 10 µM compound, 72 hours, relative to DMSO only control, n = 4; read-out: Relative Bioluminescence (%).
The mark [18] stands for this setting: Leishmania mexicana; read-out: EC50 against amastigotes, Axenic.
Setting [19] is: Leishmania mexicana; read-out: EC90 against amastigotes, Axenic.
Where [20] appears, read: THP-1 infection model, bioluminescence.
[21] abbreviates: 2 µM compound, 72 hours, relative to DMSO only control, n = 4.
The mark [22] stands for this setting: 10 µM compound, 72 hours, relative to DMSO only control, n = 4.
Setting [23] is: hit compounds from the axenic amastigote screen, S3 Table; read-out: EC50, Axenic Amastigotes.
The mark [24] stands for this setting: read-out: EC50 against amastigotes, Axenic.
[25] abbreviates: read-out: EC90 against amastigotes, Axenic.
Setting [26] is: Leishmania mexicana; hit compounds from the axenic amastigote screen, S3 Table; read-out: EC50, Axenic Amastigotes.
Where [27] appears, read: Leishmania mexicana, THP-1 infection model, bioluminescence.

“And” between values parts separate entries of the source, which are not always exact repeats. Equal values may be shown once. Read-outs that look alike come from different tables or passages of the source. Peptide text beside a SMILES is read from it. * marks the point of attachment. Cbz = O=C(OCc1ccccc1)*

For `C[C@@H]1[C@H](O)[C@@H](C)/C=C/C=C/C=C/C=C/C=C/C=C/C=C/[C@H](O[C@@H]2O[C@H](C)[C@@H](O)[C@H](N)[C@@H]2O)C[C@@H]2O[C@](O)(C[C@@H](O)C[C@@H](O)[C@H](O)CC[C@@H](O)C[C@@H](O)CC(=O)O[C@H]1C)C[C@H](O)[C@H]2C(=O)O` [Amphotericin B, reference compound], the concentration giving a half-maximal response (EC50) in [1] is 270 nM; in [2] (Leishmania mexicana, THP-1), 105 nM; in data set [3] it was 300 nM and 303 nM; in [4] (setting [15]), 200 nM; in data set [4] (Leishmania mexicana; axenic amastigotes; span over parental and transgenic line, both bioluminescence- and fluorescence-based assays; read-out: EC50 values from the parental and transgenic line), 200 to 270 nM; in data set [4] (setting [18]) it was 201 nM. In addition, the “decrease of bioluminescent signal” value in data set [2] is ≥ 99%. Besides, the EC90 in data set [2] (Leishmania mexicana, THP-1) came out at 185 nM; in data set [4] (setting [19]), 279 nM. Moreover, the viability at 2 µM in data set [4] (setting [16]) is 58.3%. Besides, in [4] (setting [17]), the viability at 10 µM amounted to 48.4%.

As to `CC(C)C[C@@H](C=O)NC(=O)[C@H](CC(C)C)NC(=O)[C@H](CC(C)C)NC(=O)OCc1ccccc1` [MG-132] (Cbz-Leu-Leu-Leu-aldehyde), in data set [5], the “bioluminescence relative to the DMSO control” value is on record as “statistically significant increase”.

`Cc1ccc(NC(=O)c2nc[nH]c2C(=O)Nc2nc3ccccc3[nH]2)c(C)c1` [MMV011903]: the EC50 was 2020 nM in data set [2] (setting [20]), > 50000 nM in [7], 180 nM in data set [4] (setting [23]) and 189 nM in [4] (setting [24]). Moreover, the 90% effect concentration (EC90) in data set [2] (setting [20]) turned out to be 2290 nM; in data set [4] (setting [25]) it was 320 nM. For the same molecule, in [6], the CC50 is > 10000 nM. In addition, the “HepG2 CC20” value in data set [6] was 8400 nM. The “Relative Bioluminescence (%)” value in data set [4] (setting [21]) is reported as -0.43%; in data set [4] (setting [22]), -1.14%.

Consider `CCN(CC)S(=O)(=O)c1ccc(C(=O)Nc2cc(C)nn2-c2nc(C)c(C)c(=O)[nH]2)cc1` [MMV595321], for which the EC50 in [8] (value in brackets ref 49, 53, read-out: Previous EC50, axenic amastigotes) is 501 nM; in data set [2] (setting [20]) it was 5300 nM; in [9] (value in brackets ref 49, 53, read-out: Previous EC50, intramacrophage amastigotes), 3160 nM; in [7], > 50000 nM; in data set [4] (setting [23]), 150 nM; in data set [4] (setting [24]), 153 nM. Besides, the EC90 in [2] (setting [20]) came out at 11200 nM; in [4] (setting [25]), 357 nM. In addition, the “Relative Bioluminescence (%)” value was -4.54% in data set [4] (setting [21]) and -3.10% in data set [4] (setting [22]).

For the molecule `O=C(Nc1ccc2c(c1)B(O)OC2)c1ccccc1C(F)(F)F` [MMV652003], the EC50 in [2] (setting [20]) amounted to 3640 nM; in data set [4] (setting [23]), 70 nM; in [4] (setting [24]) it was 77 nM. Besides, the EC90 in [2] (setting [20]) is 10700 nM; in data set [4] (setting [25]), 104 nM. Moreover, in data set [6], the “HepG2 CC20” value is 400 nM. The “Relative Bioluminescence (%)” value in data set [4] (setting [21]) is -1.53%; in [4] (setting [22]), -1.54%. The CC50 in data set [10] was > 32000 nM.

Consider `CCc1c(C)nc(-n2nc(C)cc2NC(=O)c2ccccc2SC)[nH]c1=O` [MMV676477], for which the EC50 was 4780 nM in data set [2], > 50000 nM in data set [11], 70 nM in data set [4] (setting [23]) and 69 nM in [4] (setting [24]). Further, the EC90 was 6110 nM in data set [2] and 168 nM in data set [4] (setting [25]). For the same molecule, in [6], the CC50 was 1300 nM. The results for the “Relative Bioluminescence (%)” value in data set [4] (setting [21]) and in data set [4] (setting [22]) were -0.98% and -0.92%, respectively.

Take `C[C@]1(COc2ccc(N3CCC(Oc4ccc(OC(F)(F)F)cc4)CC3)cc2)Cn2cc([N+](=O)[O-])nc2O1` [MMV688262, Delamanid, reference compound]: the EC50 is 5 nM in data set [8] (value in brackets ref 54, read-out: Previous EC50, axenic amastigotes); 1780 nM in [2] (Leishmania mexicana, THP-1); 86.5 to 298 nM in data set [9] (value in brackets ref 54, read-out: Previous EC50, intramacrophage amastigotes); 30 nM in [4] (setting [26]); 33 nM in data set [4] (setting [18]). In addition, the EC90 worked out at 25100 nM in data set [2] (Leishmania mexicana, THP-1) and 112 nM in [4] (setting [19]). Besides, the CC50 in data set [6] is 72500 nM. Also, the viability at 2 µM in data set [4] (setting [16]) is -4.37%. Moreover, in [4] (setting [17]), the viability at 10 µM was -2.71%.

As for `CC(C)(C)[C@H]1CC[C@H](CC2=C(O)C(=O)c3ccccc3C2=O)CC1` [MMV689480, Buparvaquone, reference compound], the EC50 in [12] is 1250 nM and 1440 nM; in data set [2] (setting [27]) it was 394 nM; in [4] (setting [26]) it was 2.2 nM; in data set [4] (setting [18]), 2 nM. Moreover, the figures for the EC90 in data set [2] (setting [27]) and in data set [4] (setting [19]) were 1260 nM and 11 nM, respectively. Also, in data set [4] (setting [16]), the viability at 2 µM was -0.24%. Moreover, in [4] (setting [17]), the viability at 10 µM is 0.15%.

Consider `COc1ccc(Oc2ccc([C@@H](C)N(C)c3ncc4c(N)nc(N)nc4n3)cc2)cc1` [MMV690102], for which the EC50 is 40 nM in [8] (value in brackets ref 49–51, read-out: Previous EC50, axenic amastigotes); 107 nM in [2] (setting [20]); 100 nM in data set [9] (value in brackets ref 49–51, read-out: Previous EC50, intramacrophage amastigotes); 60 nM in data set [4] (setting [24]). For the same molecule, the EC90 in data set [2] (setting [20]) was 160 nM; in data set [4] (setting [25]), 123 nM. Moreover, the “Relative Bioluminescence (%)” value in data set [4] (setting [21]) is listed as -5.29%; in data set [4] (setting [22]) it was -1.34%. For the same molecule, in data set [10], the CC50 is 5400 nM.

For the molecule `Cc1cc(OCC(=O)Nc2ccc(C(C)C)cc2)n(C)c(=O)c1C#N` [MMV1198433], the “Relative Bioluminescence (%)” value worked out at 82.52% in data set [4] (setting [21]) and 91.16% in data set [4] (setting [22]).

In the case of `CCOC(=O)c1noc(N)c1-c1ccccc1` [MMV1236379], the “Relative Bioluminescence (%)” value amounted to 77.18% in data set [4] (setting [21]) and 52.39% in [4] (setting [22]).

On to `CCCCCCCCCCCCCCCCOP(=O)([O-])OCC[N+](C)(C)C` [Miltefosine, reference compound], for which the EC50 is 1990 nM in data set [1]; 10900 nM in [2] (Leishmania mexicana, THP-1); 15700 nM in data set [13]; 2190 nM in [4] (setting [15]); 1990 nM in [4] (Leishmania mexicana, read-out: EC50 against amastigotes, Axenic); 1110 nM in [14]. For the same molecule, the EC90 in data set [2] (Leishmania mexicana, THP-1) turned out to be 37300 nM; in [4] (setting [19]), 19800 nM. Besides, the viability at 2 µM in data set [4] (setting [16]) worked out at 43%. Further, the viability at 10 µM in data set [4] (setting [17]) worked out at 11.5%.

Regarding “Levofloxacin (-)-ofloxacin [MMV687798, reference compound]”, the “Relative Bioluminescence (%)” value came out at 83.03% in data set [4] (setting [21]) and 74.50% in [4] (setting [22]).

One may read the EC50 as the concentration that produces a half-maximal response. As a reminder, the EC90 is the concentration at which the effect reaches the 90% level.
